From patent US11214578B2, “Urea/carbamates FAAH MAGL or dual FAAH/MAGL inhibitors and uses thereof” (Northeastern University, priority 2014, dated 2022)

Key:
Assay type in all cases: biochemical
ΔTM rat FAAH = molecular target: T1, ΔTM rat FAAH (Rattus norvegicus, UniProt P97612); experiment: Fluorescent assay protocol for ΔTM rat FAAH (AAMCA substrate); settings: 15 min preincubation, read-out: IC50 rFAAH
T1 construct: Preparation of Transmembrane Domain-Deleted Rat FAAH (ΔTM rFAAH); made in house; host or cells: E. coli
T1 sequence (P97612 30-579 limits assumed): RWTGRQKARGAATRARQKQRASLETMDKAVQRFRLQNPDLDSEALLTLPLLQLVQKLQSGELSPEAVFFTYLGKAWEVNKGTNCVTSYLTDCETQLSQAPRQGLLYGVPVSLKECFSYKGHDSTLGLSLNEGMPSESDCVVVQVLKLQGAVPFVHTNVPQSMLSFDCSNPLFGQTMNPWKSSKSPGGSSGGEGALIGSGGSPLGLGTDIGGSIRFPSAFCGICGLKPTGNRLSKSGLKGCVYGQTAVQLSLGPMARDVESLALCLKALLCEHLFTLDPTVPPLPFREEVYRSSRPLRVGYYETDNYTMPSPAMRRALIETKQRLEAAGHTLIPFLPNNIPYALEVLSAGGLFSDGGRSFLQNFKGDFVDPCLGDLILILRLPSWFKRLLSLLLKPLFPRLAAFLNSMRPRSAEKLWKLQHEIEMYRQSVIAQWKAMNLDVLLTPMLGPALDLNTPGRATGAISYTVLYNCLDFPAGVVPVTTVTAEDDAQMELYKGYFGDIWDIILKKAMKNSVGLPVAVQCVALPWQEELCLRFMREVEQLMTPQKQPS
Protocol: Procedure was followed as described for hMAGL, except that arachidonoyl-methyl coumarin amide (AAMCA) was used as fluorigenic substrate. […] For the screening assay, 3 concentrations (1 μM, 10 μM, and 100 μM) of test compounds, 15 μg of ΔTM rFAAH and assay buffer were pre-incubated for 15 min at 25° C. […] The fluorescence reading at the 3 hour time point (linear enzyme kinetics) was used to calculate percent inhibition based on control assays without inhibitor present. All FAAH assays were performed in triplicate for each inhibitor concentration, and IC50 values determined using Prizm software (GraphPad Software, Inc.).

Human FAAH (MBPΔTMhFAAH) = molecular target: T2, Human FAAH (MBPΔTMhFAAH) (Homo sapiens, UniProt O00519); experiment: Fluorescent assay protocol for hFAAH; settings: human FAAH (MBP fusion, ΔTM), procedure as for rFAAH
T2 construct: made in house; host or cells: E. coli (pMALcE4 vector)
T2 sequence (O00519 30-579 limits assumed): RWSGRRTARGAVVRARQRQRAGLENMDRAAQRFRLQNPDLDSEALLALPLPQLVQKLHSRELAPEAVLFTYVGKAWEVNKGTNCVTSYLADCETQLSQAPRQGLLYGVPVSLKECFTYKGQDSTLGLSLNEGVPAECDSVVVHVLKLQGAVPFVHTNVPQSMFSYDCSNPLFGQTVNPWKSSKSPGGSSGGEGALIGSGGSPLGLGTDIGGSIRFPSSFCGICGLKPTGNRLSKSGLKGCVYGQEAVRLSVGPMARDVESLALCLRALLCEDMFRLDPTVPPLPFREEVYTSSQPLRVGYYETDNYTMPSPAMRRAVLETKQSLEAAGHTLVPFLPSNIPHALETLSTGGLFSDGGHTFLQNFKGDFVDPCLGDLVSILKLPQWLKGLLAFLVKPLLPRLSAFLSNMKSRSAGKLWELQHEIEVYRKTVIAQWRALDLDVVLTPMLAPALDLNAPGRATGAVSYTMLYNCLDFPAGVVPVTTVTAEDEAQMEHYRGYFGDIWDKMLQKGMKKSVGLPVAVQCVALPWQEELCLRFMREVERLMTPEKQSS
Protocol: Human FAAH without putative transmembrane domain following maltose binding protein was expressed in E. coli cells using pMALcE4 vector Alapafuja et al J. Med. Chem. (2012) 55: 10074-89.
Procedure was followed as described for hMAGL, except that arachidonoyl-methyl coumarin amide (AAMCA) was used as fluorigenic substrate. Compounds were diluted in 50:50 DMSO/assay buffer (50 mM HEPES, 1 mM EDTA, 0.1% BSA, pH 7.4) so as to have a final DMSO concentration below 8% in each reaction. For the screening assay, 3 concentrations (1 μM, 10 μM, and 100 μM) of test compounds, 15 μg of ΔTM rFAAH and assay buffer were pre-incubated for 15 min at 25° C. AAMCA (20 μM, 2×Km) was added prior to incubation at 25° C. and kinetic fluorescence reading every 20 minutes (λex=360/λem=460) for 4 hours on a BioTek Synergy HT Microplate Reader (BioTek Instruments, Winooski, Vt.). The fluorescence reading at the 3 hour time point (linear enzyme kinetics) was used to calculate percent inhibition based on control assays without inhibitor present. All FAAH assays were performed in triplicate for each inhibitor concentration, and IC50 values determined using Prizm software (GraphPad Software, Inc.).
Procedure was followed as described for rFAAH.

Rat MAGL (rMAGL) = molecular target: T3, Rat MAGL (rMAGL) (Rattus norvegicus, UniProt Q8R431); experiment: Fluorescent assay protocol for rMAGL; settings: recombinant rat MAGL, procedure as for hMAGL; read-out: IC50 rMAGL
T3 construct: made in house; host or cells: E. coli
T3 sequence (Q8R431 1-303): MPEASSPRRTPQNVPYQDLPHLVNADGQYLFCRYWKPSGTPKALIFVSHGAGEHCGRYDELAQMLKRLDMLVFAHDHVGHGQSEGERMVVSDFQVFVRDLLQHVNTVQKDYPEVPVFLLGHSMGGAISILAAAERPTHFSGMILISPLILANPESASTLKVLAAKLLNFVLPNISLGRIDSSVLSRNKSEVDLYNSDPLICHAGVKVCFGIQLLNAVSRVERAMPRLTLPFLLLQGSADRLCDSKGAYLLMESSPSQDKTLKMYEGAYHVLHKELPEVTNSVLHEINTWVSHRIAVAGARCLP
Protocol: (§1) This medium throughput assay involved a 96-well plate format in which hMAGL activity was monitored by the hydrolysis of the substrate 7-hydroxy-6-methoxy-4-methylcoumarin ester (AHMMCE) to form the fluorescent product, coumarin. […] Upon the addition of AHMMCE, the reaction was incubated at 25° C. for 120 min; fluorescence readings were taken every 15 min at 360 nm/460 nm (λexcitation/λemission) using a Synergy HT Plate Reader (Bio-Tek, Winooski, Vt.). […] External standards were used to convert relative fluorescence units to the amount of 4-methylcoumarin formed. All MAGL assays were performed in triplicate for each inhibitor concentration, and IC50 values were calculated using Prizm software (GraphPad Software, Inc., San Diego, Calif.).
Procedure was followed as described for hMAGL.

Human MAGL (hMAGL) = molecular target: T4, Human MAGL (hMAGL) (Homo sapiens, UniProt Q99685); experiment: Fluorescent assay protocol for hMAGL (AHMMCE substrate); settings: recombinant human MAGL, AHMMCE substrate, 15 min preincubation; read-out: IC50 hMAGL
T4 construct: hexahistidine; made in house; host or cells: E. coli
T4 sequence (Q99685 1-303): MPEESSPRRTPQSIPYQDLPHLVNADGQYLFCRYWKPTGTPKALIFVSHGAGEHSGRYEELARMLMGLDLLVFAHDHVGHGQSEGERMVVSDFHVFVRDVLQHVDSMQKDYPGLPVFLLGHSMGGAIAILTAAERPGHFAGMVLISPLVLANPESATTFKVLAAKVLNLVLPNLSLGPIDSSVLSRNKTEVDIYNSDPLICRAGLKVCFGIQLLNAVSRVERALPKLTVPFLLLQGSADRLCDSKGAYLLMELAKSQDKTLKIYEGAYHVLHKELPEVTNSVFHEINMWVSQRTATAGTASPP
Protocol: as §1

Row | SMILES | IC50 (ΔTM rat FAAH) [nM] | IC50 (Human FAAH (MBPΔTMhFAAH)) [nM] | IC50 (Rat MAGL (rMAGL)) [nM] | IC50 (Human MAGL (hMAGL)) [nM]
1 | N#Cc1cccc(-c2cccc(NC(=O)N3CCN(Cc4ccc5ccccc5n4)CC3)c2)c1 [Example 13, N-(3′-cyano-[1,1′-biphenyl]-3-yl)-4-(quinolin-2-ylmethyl)piperazine-1-carboxamide] | 10 to 100 | 10 to 100 | > 1000 | > 1000
2 | O=C(Nc1cccc(Oc2ccccc2)c1)N1CCN(Cc2ccc3ccccc3n2)CC1 [Example 14, N-(3-phenoxyphenyl)-4-(quinolin-2-ylmethyl)piperazine-1-carboxamide] | > 1000 | > 1000 | > 1000 | > 1000
3 | N#Cc1cccc(-c2cccc(NC(=O)N3CCC(c4ccccc4)CC3)c2)c1 [Example 15, N-(3′-cyano-[1,1′-biphenyl]-3-yl)-4-phenylpiperidine-1-carboxamide] | > 1000 | > 1000 | > 1000 | > 1000
4 | N#Cc1cccc(-c2cncc(NC(=O)N3CCC(c4ccccc4)CC3)c2)c1 [Example 16, N-(5-(3-cyanophenyl)pyridin-3-yl)-4-phenylpiperidine-1-carboxamide] | > 1000 | > 1000 | > 1000 | > 1000
5 | N#Cc1cccc(-c2cccc(NC(=O)N3CCN(Cc4cccc(-c5ccccc5)c4)CC3)c2)c1 [Example 17, 4-([1,1′-biphenyl]-3-ylmethyl)-N-(3′-cyano-[1,1′-biphenyl]-3-yl)piperazine-1-carboxamide] | 10 to 100 | 10 to 100 | > 1000 | > 1000
6 | NC(=O)c1cccc(-c2cccc(NC(=O)N3CCN(Cc4cccc(Oc5ccccc5)c4)CC3)c2)c1 [Example 18, N-(3′-carbamoyl-[1,1′-biphenyl]-3-yl)-4-(3-phenoxybenzyl)piperazine-1-carboxamide] | 10 to 100 | 110 to 1000 | > 1000 | > 1000
7 | C[C@H]1CN(C(=O)Nc2cccc(-c3cccc(C#N)c3)c2)CCN1Cc1ccc2ccccc2n1 [Example 19, (S)—N-(3′-cyano-[1,1′-biphenyl]-3-yl)-3-methyl-4-(quinolin-2-ylmethyl)piperazine-1-carboxamide] | 110 to 1000 | 110 to 1000 | > 1000 | > 1000

Now from value to compound:

Row | IC50 (ΔTM rat FAAH) [nM] | IC50 (Human FAAH (MBPΔTMhFAAH)) [nM] | IC50 (Rat MAGL (rMAGL)) [nM] | IC50 (Human MAGL (hMAGL)) [nM] | SMILES
8 | 110 to 1000 | 110 to 1000 | > 1000 | > 1000 | N#Cc1cccc(-c2cccc(NC(=O)N3CCC4(CC3)CC(=O)c3ccccc3O4)c2)c1 [Example 20, N-(3′-cyano-[1,1′-biphenyl]-3-yl)-4-oxospiro[chromane-2,4′-piperidine]-1′-carboxamide]
9 | 110 to 1000 | 110 to 1000 | > 1000 | > 1000 | C[C@H]1CN(C(=O)n2cnc(-c3ccccc3)c2)CCN1Cc1cccc(-c2ccccc2)c1 [Example 21, (S)-(4-([1,1′-biphenyl]-3-ylmethyl)-3-methylpiperazin-1-yl)(4-phenyl-1H-imidazol-1-yl)methanone]
10 | 110 to 1000 | 110 to 1000 | > 1000 | > 1000 | C[C@H]1CN(Cc2cccc(Oc3ccccc3)c2)CCN1C(=O)n1cnc(Br)c1 [Example 22, (S)-(4-bromo-1H-imidazol-1-yl)(2-methyl-4-(3-phenoxybenzyl)piperazin-1-yl)methanone]
11 | 10 to 100 | 110 to 1000 | > 1000 | > 1000 | CC1CN(c2ccccc2)CCN1C(=O)n1cnc(-c2ccccc2)c1 (stereo not shown) [Example 23, (2-methyl-4-phenylpiperazin-1-yl)(4-phenyl-1H-imidazol-1-yl)methanone]
12 | 10 to 100 | 110 to 1000 | > 1000 | > 1000 | CC1CN(C(=O)n2cnc(-c3ccccc3)c2)CCN1c1ccccc1 (stereo not shown) [Example 24, (3-methyl-4-phenylpiperazin-1-yl)(4-phenyl-1H-imidazol-1-yl)methanone]
13 | 10 to 100 | 10 to 100 | > 1000 | > 1000 | Cc1ccc(N2CCN(C(=O)n3cnc(-c4ccccc4)c3)CC2C)cc1 (stereo not shown) [Example 25, (3-methyl-4-(p-tolyl)piperazin-1-yl)(4-phenyl-1H-imidazol-1-yl)methanone]
14 | 10 to 100 | 110 to 1000 | > 1000 | > 1000 | CC1CN(C(=O)n2cnc(-c3ccccc3)c2)CCN1c1cccc(OCc2ccccc2)c1 (stereo not shown) [Example 26, (4-(3-(benzyloxy)phenyl)-3-methylpiperazin-1-yl)(4-phenyl-1H-imidazol-1-yl)methanone]
15 | 110 to 1000 | 110 to 1000 | > 1000 | > 1000 | CC1CN(C(=O)n2cnc(-c3ccccc3)c2)CCN1c1cccc(O)c1 (stereo not shown) [Example 27, (4-(3-hydroxyphenyl)-3-methylpiperazin-1-yl)(4-phenyl-1H-imidazol-1-yl)methanone]
16 | 110 to 1000 | 110 to 1000 | > 1000 | > 1000 | O=C(N1CCN(C(c2ccc(F)cc2)c2ccc(F)cc2)CC1)n1cnc(Br)c1 [Example 28, (4-(bis(4-fluorophenyl)methyl)piperazin-1-yl)(4-bromo-1H-imidazol-1-yl)methanone]
